From patent US20090137664A1, “SAURURUS CERNUUS COMPOUNDS THAT INHIBIT CELLULAR RESPONSES TO HYPOXIA” (priority 2003, published 2009) come the findings set out here.

Data set [1] concerns secreted VEGF protein. As to the kind of experiment: hypoxic induction of secreted VEGF protein in T47D cells (ELISA). Type of data set: cell-based, human. To be noted: for concentration at which hypoxic induction of secreted VEGF protein is completely blocked / inhibition of VEGF protein levels relative to the hypoxia-induced positive control: 12-well; for inhibition of VEGF protein levels relative to the hypoxia-induced positive control: p<0.01; for reduction of secreted VEGF protein induced by hypoxia: 96-well, 1 at 100 nM, 2 at 10 nM, PD98059 at 100 μM. The method, then:
(§1) The effects of compounds 1 and 2 on hypoxic induction of secreted VEGF protein are examined in T47D cells. Exponentially grown T47D cells are plated at the density of 30,000 cells/well into 96-well plates. Compound treatment and hypoxic exposure are the same as described. Following incubation, the concentration of secreted VEGF protein in the conditioned media is determined by ELISA (R & D Systems) and the data normalized by the number of viable cells. Results shown in FIG. 4 are averages from a representative experiment performed in quadruplicate, the bars represent standard error. An asterisk (*) indicates the level of significance (p<0.01) relative to the hypoxic control, two asterisks (**) (p<0.0001), and no asterisk indicates no statistical difference (ANOVA and Fisher's PLSD post hoc test).
As discussed earlier, one important HIF-1 target gene is VEGF, a key factor for tumor angiogenesis. Compounds that can inhibit both HIF-1 activation and the production of secreted VEGF protein represent potential efficacious chemotherapeutic agents that inhibit both tumor survival and hypoxia induced angiogenesis. The effects of four active examples (compounds 2, 3, 4, and 5) on hypoxic induction of secreted VEGF protein are examined in T47D cells and the data are presented in FIG. 9. Exponentially grown T47D cells are plated at the density of 356,000 cells/well into 12-well plates. Compound treatment and hypoxic exposure are the same as described. Following incubation, the concentration of secreted VEGF protein in the conditioned media is determined by ELISA (R & D Systems) and the data normalized by the number of viable cells. […] Hypoxic exposure leads to a 2-fold increase in the level of secreted VEGF protein. […] The level of significance (p<0.01) is determined by ANOVA and Fisher's PLSD post hoc test. The exemplary compounds 2, 3, and 4 all completely block hypoxic induction of secreted VEGF protein at concentrations as low as 10 nM. The exemplary compound 5 inhibits the hypoxic induction by 60% at 10 nM, and completely blocks at 100 nM. When tested at 100 nM, none of the compounds interfere with the ELISA assay using VEGF standard (no greater than 15% difference).

For data set [2], the system named is HIF-1. As to the kind of experiment: pTK-HRE3-luc reporter assay, hypoxia-induced HIF-1 activation in T47D cells.
Data set [3] is described as follows: T47D cell viability / cytotoxicity. The format is cell-based, human. To be noted: human; 100 μM; read-out: reduction of T47D cell viability.
In data set [4] the test system is T47D cells. Put plainly: T47D cell viability / cytotoxicity. Type of data set: cell-based, human.
Data set [5] deals with secreted VEGF protein. As to the kind of experiment: induction of secreted VEGF protein by 1,10-phenanthroline in T47D cells (ELISA). Type of data set: cell-based, human. To be noted: 10 μM, 16 hr. The method, then:
Cell plating and compound treatment is similar to those described earlier for hypoxic conditions. […] At the end of the incubation, the concentration of secreted VEGF protein in the conditioned media is determined by ELISA and the data normalized by the number of viable cells.

Data set [6] has as its system HIF-1β protein. As to the kind of experiment: Western blot, HIF-1β protein in T47D nuclear extract. The format is cell-based, human. The method, then: Due to the low abundance of HIF-1α protein in whole cell extract, nuclear extract is prepared and the level of HIF-1α protein in the nuclear extract determined by Western blot. Briefly, exponentially grown T47D cells are exposed to compound 2 for 30 minutes. […] Nuclear extracts are prepared from control and treated cells, separated on a SDS/PAGE gel, the separated proteins transferred to a nitrocellulose membrane, incubated with the primary antibodies (anti-HIF-1α, and anti-HIF-1β monoclonal antibodies, Novus Biologicals), secondary antibody biotinylated anti-mouse immunoglobulin G and Vectastain ABC reagent (Vector Laboratories), and developed using ECL reagents (Amersham Biosciences). […] No change in HIF-1β protein level is observed across the treatments. It is reasonable to conclude that the selectivity of compound 2 towards hypoxia-activated HIF-1 is caused by selective blockade of the hypoxic induction of HIF-1 protein.

Data set [7] relates to HIF-1. Put plainly: pTK-HRE3-luc reporter assay, 1,10-phenanthroline-induced HIF-1 activation in T47D cells. The format is cell-based. To be noted: Homo sapiens, read-out: inhibition of HIF-1 activation by 1,10-phenanthroline, 1 μM. The source says: Iron chelators and transition metals (such as cobalt and nickel) can activate HIF-1 and have been used as chemical hypoxia mimetics. […] The expression of the HIF-1α subunit quantitatively determines HIF-1 biological activity (activation of transcription).

For data set [8], the system named is pGL3 Control. As to the kind of experiment: luciferase expression from control plasmid pGL3 Control. The format is cell-based, human. The method, then:
The chemical structures of active compounds 1 and 2 are shown above. Compound 2 is the known compound manassantin B and 1 is a novel compound of the present invention. […] Similar results are obtained from separate experiments. The IC50 is 3 nM for 2 and 30 nM for 1. Complete inhibition is observed at 10 nM for 2 and 100 nM for 1.

Data set [9] addresses T1, recombinant VEGF protein standard (Homo sapiens, UniProt P15692).
T1 construct: purchased R & D Systems
As to the kind of experiment: interference with the VEGF ELISA using VEGF standard. The method, then: as §1
As discussed earlier, one important HIF-1 target gene is VEGF, a key factor for tumor angiogenesis. Compounds that can inhibit both HIF-1 activation and the production of secreted VEGF protein represent potential efficacious chemotherapeutic agents that inhibit both tumor survival and hypoxia induced angiogenesis. […] Following incubation, the concentration of secreted VEGF protein in the conditioned media is determined by ELISA (R & D Systems) and the data normalized by the number of viable cells. […] The level of significance (p<0.01) is determined by ANOVA and Fisher's PLSD post hoc test. […]

pIC50: −log10 of the molar value. Read-outs that look alike come from different tables or passages of the source.

T1 sequence (P15692 27-191 isoform P15692-4): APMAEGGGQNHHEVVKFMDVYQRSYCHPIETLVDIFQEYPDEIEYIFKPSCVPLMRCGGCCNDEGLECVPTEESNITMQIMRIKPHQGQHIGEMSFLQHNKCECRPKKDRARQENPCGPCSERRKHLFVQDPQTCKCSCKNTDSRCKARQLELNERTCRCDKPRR

Take `COc1ccc(C(O)C(C)Oc2ccc(C3OC(c4ccc(OC(C)C(O)c5ccc(OC)c(OC)c5)c(OC)c4)C(C)C3C)cc2OC)cc1OC` (stereo not drawn) [Compound 3]: in data set [1], the “concentration at which hypoxic induction of secreted VEGF protein is completely blocked” value (shortened to “concentration at which hypoxic induction”) stood at 10 nM and the “inhibition of VEGF protein levels relative to the hypoxia-induced positive control” value is recorded as “significantly inhibit”. Further, the “concentration at which complete inhibition of hypoxic activation of HIF-1 is observed” value in data set [2] (T47D, pHRE-luc assay) is recorded as 10 nM.

On to `COc1ccc(C(O)C(C)Oc2ccc(C3OC(c4ccc(OC)c(OC)c4)C(C)C3C)cc2OC)cc1OC` (stereo not drawn) [Compound 5], for which, in data set [1], the “concentration at which hypoxic induction” value is on record as 100 nM and the “inhibition of VEGF protein levels relative to the hypoxia-induced positive control” value is “significantly inhibit”. In data set [1] (Homo sapiens, 10 nM), this molecule registered an inhibition at 0.01 µM of 60%. Further, the “concentration at which complete inhibition of hypoxic activation of HIF-1 is observed” value in [2] (T47D, pHRE-luc assay) is recorded as 100 nM.

With `O=c1c(-c2ccc(O)cc2)coc2cc(O)cc(O)c12` [genistein, reference compound], in data set [3], the cytotoxicity at 100 μM came to 50%. Further, the “concentration for 70% inhibition of hypoxic activation of HIF-1” value in data set [2] is 10 µM. Also, the pIC50 in [2] (Homo sapiens, T47D, 16 h, read-out: IC50 for inhibition of hypoxia-induced HIF-1 activation) is 6.00.

In the case of `COc1ccc(C(O)C(C)Oc2ccc(C3OC(c4ccc(OC(C)C(O)c5ccc6c(c5)OCO6)c(OC)c4)C(C)C3C)cc2OC)cc1OC` (stereo not drawn) [Compound 4], in data set [1], the “concentration at which hypoxic induction” value is on record as 10 nM and the “inhibition of VEGF protein levels relative to the hypoxia-induced positive control” value is given as “significantly inhibit”. Besides, the “concentration at which complete inhibition of hypoxic activation of HIF-1 is observed” value in data set [2] (T47D, pHRE-luc assay) was 10 nM.

`COc1cccc(-c2cc(=O)c3ccccc3o2)c1N` [PD98059, reference compound]: the cytotoxicity entry in data set [4] is “no significant cytotoxicity”. In addition, in [1], the “reduction of secreted VEGF protein induced by hypoxia” value was “only 1 and 2 treatments lead to statistically significant reduction”. In addition, the “concentration for 70% inhibition of hypoxic activation of HIF-1” value in data set [2] turned out to be 10 µM. Also, in data set [2] (T47D, pHRE-luc assay), the “concentration at which hypoxic activation of HIF-1 is completely inhibited” value stood at 100 µM. Moreover, the pIC50 in data set [2] (read-out: IC50 for inhibition of hypoxia-induced HIF-1 activation, T47D cells, hypoxic conditions 16 hr) was 5.70.

For `c1cnc2c(c1)ccc1cccnc12` [1,10-phenanthroline, reference compound], the “secreted VEGF protein level in T47D cells” value in [5] is reported as “significantly induces”. Also, the HIF-1β protein level entry in data set [6] was “no significant effect”.

With `COc1cc(C(O)C(C)Oc2ccc(C3OC(c4ccc(OC(C)C(O)c5ccc6c(c5)OCO6)c(OC)c4)C(C)C3C)cc2OC)ccc1O` (stereo not drawn) [Compound 1], the inhibition at 1 µM in data set [7] was found to be 45%. Moreover, the “luciferase expression from the pGL3-Control plasmid” value in data set [8] (1,10-phenanthroline experiment (FIG. 5)) is “Neither compound exerts significant effect”. Also, in [8] (hypoxia experiment (FIG. 3)), the “luciferase expression from the control plasmid (pGL3 Control)” value is “No statistically significant difference”. Also, the “reduction of secreted VEGF protein induced by hypoxia” value in data set [1] is recorded as “statistically significant reduction”. Moreover, in data set [9], the “interference with the ELISA assay” value is given as “neither compound interferes”. In addition, the pIC50 in data set [2] (Homo sapiens, T47D, read-out: IC50, inhibition of hypoxic activation of HIF-1) was 7.52. Also, the “concentration at which complete inhibition of hypoxic activation of HIF-1 is observed” value in [2] (T47D, pHRE-luc assay) was 100 nM.
